Assay results published in patent US8762074B2, “Optimizing culture medium for CD34<+> hematopoietic cell expansion” (Sino-Cell Technologies, priority 2004, dated 2014).

B1: Flt-3 ligand (protein, UniProt P49771 27-235, looked up)
Fms-related tyrosine kinase 3 …: TQDCSFQHSPISSDFAVKIRELSDYLLQDYPVTVASNLQDEELCGGLWRLVLAQRWMERLKTVAGSKMQGLLERVNTEIHFVTKCAFQPPPSCLRFVQTNISRLLQETSEQLVALKPWITRQNFSRCLELQCQPDSSTLPPPWSPRPLEATAPTAPQPPLLLLLLLPVGLLLLAAAWCLHWQRTRRRTPRPGEQVPPVPSPQDLLLVEH
notes: recombinant human growth factor
B2: granulocyte colonystimulating factor (protein, UniProt P09919 31-207, looked up)
Granulocyte …: TPLGPASSLPQSFLLKCLEQVRKIQGDGAALQEKLVSECATYKLCHPEELVLLGHSLGIPWAPLSSCPSQALQLAGCLSQLHSGLFLYQGLLQALEGISPELGPTLDTLQLDVADFATTIWQQMEELGMAPALQPTQGAMPAFASAFQRRAGGVLVASHLQSFLEVSYRVLRHLAQP
notes: as for B1
B3: IL-6 sR: IL-6 sR (soluble receptor), purchased from R&D systems (protein, UniProt P08887 20-365, looked up)
extracellular domain: LAPRRCPAQEVARGVLTSLPGDSVTLTCPGVEPEDNATVHWVLRKPAAGSHPSRWAGMGRRLLLRSVQLHDSGNYSCYRAGRPAGTVHLLVDVPPEEPQLSCFRKSPLSNVVCEWGPRSTPSLTTKAVLLVRKFQNSPAEDFQEPCQYSQESQKFSCQLAVPEGDSSFYIVSMCVASSVGSKFSKTQTFQGCGILQPDPPANITVTAVARNPRWLSVTWQDPHSWNSSFYRLRFELRYRAERSKTFTTWMVKDLQHHCVIHDAWSGLRHVVQLRAQEEFGQGEWSEWSPEAMGTPWTESRSPPAENEVSTPMQALTTNKDDDNILFRDSANATSLPVQDSSSVPLP
modifications: extracellular domain
notes: IL-6 sR (soluble receptor), purchased from R&D systems

How the values were obtained:
[1] = test system: WBC; test: Ex vivo expansion culture of UCB CD133+/CD34+ cells, WBC growth (cell density at day 7); format: cell-based, human; settings: for regression coefficient of first-order model, Eq. (6): from Table 7, IMDM containing TISF; for regression coefficient of first-order model, Eq. (8): from Table 8, cytokine-containing medium; for effect on WBC growth: per Eq. (2), serum-containing IMDM; for regression coefficient of first-order model, Eq. (4): from Table 5, serum-containing medium, +1 = 10 ng/ml
Description: (§1) The UCB of full-termed healthy newborns, included uneventful vaginal births or cesarean sections, was harvested with a standard 250-ml blood bag containing citrate-phosphate-dextrose-adenine anticoagulant (Terumo, Shibuya-ku, Tokyo, Japan).
(§2) Buffy coat cells were obtained from UCB samples by centrifugation (700×g for 20 min), and were diluted with an equal volume of wash buffer (Dulbecco's phosphate buffered saline (D-PBS, Sigma, St. Louis, Mo.) contain 2 mM EDTA (Sigma)). Then the Buffy coat cells were layered onto Ficoll-Paque (ρ=1.077 g/ml, Amersham Biosciences, Uppsala, Sweden) density gradients to deplete red blood cells (RBC) (700×g for 40 min). The mononuclear cell (MNC) interface was collected, diluted into four volumes of wash buffer, and centrifuged to pellet the cells (700×g for 10 min). The MNC pellet was washed twice and resuspended in MACS buffer (D-PBS contained 0.5% bovine serum albumin (BSA, Sigma) and 2 mM EDTA) for CD133<+> cell purification. CD133<+> cord blood cells were isolated using the Miltenyi VarioMACS device (Miltenyi Biotec, Bergisch Gladbach, Germany), according to the manufacturer's instruction. Briefly, UCB MNC were incubated for 30 min at 4° C. with human IgG to block the Fc receptors and mouse monoclonal antibody to human CD133 microbead (Miltenyi Biotec). Labeled cells were applied to magnetic column (LS column, Miltenyi Biotec). Then, unbound cells were washed out, and CD133<+> cells were eluted from the column with MACS buffer. To improve the purity of the CD133+ (or CD34<+>) cells, a secondary purification cycle was performed with the same way. Then the cells were sampled for CD34<+> analysis to determine yield, purity and viability and assayed for colony-forming cells (CFC) as day 0 for control. To expand cells, CD133<+> cells were seeded at a concentration of 5×10^4 cells/ml in 24-well plate (1 ml per well, Falcon, N.J.) with variable serum substitutes, cytokines and medium according to experiment design. After 7 days, the cells were analyzed to compare with the day 0 control (all experiments were repeated at least four times).
(§3) Two-level factorial design followed the method of steepest ascent was carried out to find the optimal concentration of serum substitutes and cytokines for CD34<+> cells expansion. Fractional and full factorial design data were regressed by SPSS software (SPSS Inc. In: SPSS for Windows, base system user's guide. Release 6.0. Chicago, Ill.: SPSS Inc.; 1993. p. 235-47) to obtain the first order polynomial. Its statistical significance was determined by an F-test and the significance of the regression coefficients was analyzed by a t-test. The polynomial takes the form of White blood cell or CD34<+> cell (cells/ml)=β0+βiXi (1) where β's are the regression constants and X's are coded variables for the tested additives.

[2] = test system: CD34<+> hematopoietic cells; test: Ex vivo expansion culture of UCB CD133+/CD34+ cells, CD34+ cell growth by flow cytometry (cell density at day 7); format: cell-based, human; settings: for regression coefficient of first-order model, Eq. (7): from Table 7, IMDM containing TISF; for regression coefficient of first-order model, Eq. (9): from Table 8, cytokine-containing medium; for effect on CD34<+> cell growth/expansion: per Eq. (3), serum-containing IMDM; for regression coefficient of first-order model, Eq. (5): from Table 5, +1 = 10 ng/ml
Description: as §1, §2
Cells before and after expanding culture were analyzed by two-color flow cytometry on a FACSCaliber analyzer (Becton-Dickinson, NJ, USA). About 1×10^6 cells were stained with FITC-conjugated anti-human CD45 and Peconjugated anti-human CD34, and gated for CD45<+>CD34<+> cells with low side scatter, according to the CD34 enumeration protocols developed by the International Society of Hematotherapy and Graft Engineering (ISHAGE) (Sutherland Dr, et al, J Hematother 1996; 5:231-8). A replicate sample was stained with FITC-antiCD45 and PE-mouse IgG1 as an isotype control to ensure specificity.
as §3

[3] = per Eqs. (6) and (7), serum substitutes in IMDM containing TISF
[4] = per Eqs. (8) and (9), serum substitutes in serum-free medium
[5] = 2^9−5 fractional factorial design in IMDM containing BIT2 (data not shown)
[6] = per Eqs. (10) and (11), serum-free IMDM + BIT2
[7] = per Eqs. (4) and (5), serum-containing medium

Row | Molecule | regression coefficient of first-order model, Eq. (6) [1] | regression coefficient of first-order model, Eq. (8) [1] | regression coefficient of first-order model, Eq. (7) [2] | regression coefficient of first-order model, Eq. (9) [2] | effect on WBC and CD34<+> cell growth [2, 3] | effect on WBC and CD34<+> cell growth [2, 4] | effect on WBC and CD34<+> cell growth [2, 5] | effect on CD34<+> cell growth/expansion [2] | effect on WBC and CD34<+> cell growth [2, 6] | effect on WBC growth [1] | regression coefficient of first-order model, Eq. (4) [1] | regression coefficient of first-order model, Eq. (5) ([2]; serum-containing medium) | effect on WBC and CD34<+> cell growth [2, 7]
1 | C[C@]12CCC(=O)C=C1CC[C@@H]1[C@@H]2[C@@H](O)C[C@@]2(C)[C@H]1CC[C@]2(O)C(=O)CO [HC, hydrocortisone, reference compound] | 0.5 10^5 WBC cells/ml |  |  |  |  |  |  |  |  |  |  |  | 
2 | OCCS [Trial 2-ME, 2-mercaptoethanol] | 0.875 10^5 WBC cells/ml | 0.069 10^6 WBC cells/ml | 0.311 10^5 CD34<+> cells/ml | 0.025 10^6 CD34<+> cells/ml | can stimulate both WBC and CD34<+> cell growth | could promote WBC and CD34<+> cell growth instead of serum |  |  |  |  |  |  | 
3 | IL-6: recombinant human interleukin-6, purchased from R&D systems |  |  |  |  |  |  | could facilitate WBC and CD34<+> cell growth | less positive effects than TPO, IL-3, SCF and FL | positively affected WBC and CD34<+> cell growth |  |  |  | 
4 | Transferrin [TF] |  | 0.7 10^6 WBC cells/ml | 0.120 10^5 CD34<+> cells/ml | 0.303 10^6 CD34<+> cells/ml | can stimulate both WBC and CD34<+> cell growth | could promote WBC and CD34<+> cell growth instead of serum |  |  |  |  |  |  | 
5 | bovine serum albumin [BSA] | 2.625 10^5 WBC cells/ml | 0.362 10^6 WBC cells/ml | 0.945 10^5 CD34<+> cells/ml | 0.302 10^6 CD34<+> cells/ml | can stimulate both WBC and CD34<+> cell growth | could promote WBC and CD34<+> cell growth instead of serum |  |  |  |  |  |  | 
6 | granulocyte-macrophage colony-stimulating factor [GM-CSF] |  |  |  |  |  |  | could facilitate WBC and CD34<+> cell growth | negative | positively affected WBC and CD34<+> cell growth | positive |  |  | 
7 | insulin | 1.250 10^5 WBC cells/ml | 0.131 10^6 WBC cells/ml | 0.231 10^5 CD34<+> cells/ml | 0.053 10^6 CD34<+> cells/ml | can stimulate both WBC and CD34<+> cell growth | could promote WBC and CD34<+> cell growth instead of serum |  |  |  |  |  |  | 
8 | stem cell factor [SCF] |  |  |  |  |  |  | could facilitate WBC and CD34<+> cell growth | can stimulate CD34<+> cell expansion | positively affected WBC and CD34<+> cell growth | stronger effects than the other cytokines | 0.387 10^6 WBC cells/ml | 0.162 10^6 CD34<+> cells/ml | facilitated WBC and CD34<+> cell growth
9 | thrombopoietin [TPO] |  |  |  |  |  |  | could facilitate WBC and CD34<+> cell growth | can stimulate CD34<+> cell expansion | positively affected WBC and CD34<+> cell growth | stronger effects than the other cytokines | 0.413 10^6 WBC cells/ml | 0.172 10^6 CD34<+> cells/ml | facilitated WBC and CD34<+> cell growth
10 | B1 |  |  |  |  |  |  | could facilitate WBC and CD34<+> cell growth | can stimulate CD34<+> cell expansion | positively affected WBC and CD34<+> cell growth | stronger effects than the other cytokines | 0.237 10^6 WBC cells/ml | 0.110 10^6 CD34<+> cells/ml | facilitated WBC and CD34<+> cell growth
11 | B2 |  |  |  |  |  |  | could facilitate WBC and CD34<+> cell growth | less positive effects than TPO, IL-3, SCF and FL | positively affected WBC and CD34<+> cell growth |  |  |  | 
12 | B3 |  |  |  |  |  |  |  |  |  | inhibited WBC growth |  |  | 
